{
  "source": "patent US7618643B2",
  "about": "“Growth factor delivery system for the healing of wounds and the prevention of inflammation and disease” (DirectContact LLC, priority 2002, dated 2009)",
  "key": {"[1]": {"system": "rabbit corneal epithelial cells", "test": "in vitro wound closure, epithelial cell sheets contacted with contact lenses", "format": "cell-based", "conditions": "for healing: lens soaked in 10 ng/μL EGF", "description": "(§1) Ocular cells were placed into a sterile plastic dish. This dish contained a 5-mm disk. The purpose of the disk was to prevent cells from growing in the covered area. When the disk was removed, a 5-mm “wound” or “hole” was present.\n(§2) Contact lenses were then added to these cell sheets with the wounds. The lenses were left in contact with the cell sheets for a minimum of 30 minutes. Minimal medium was used to maintain the cell cultures. Cells were incubated at 35° C.±2° C. in 5% CO2. […] The contact lenses used were polymacon B, vifilcon A, and lidofilcon A hydrogel polymers.\n(§3) The cell sheets were then viewed over time, and the diameter of the hole was measured.\n(§4) The results are expressed in terms of closure of the in vitro wound over time.\nEpithelial Cells and Tissue. Epithelial (rabbit corneal epithelial cells) cells were seeded on a dish and contacted with control and EGF-containing contact lenses. […] At 72 hours, there was a 43% difference in the closure rate between the EGF-treated epithelial tissue and the controls. The hydrogel material that was used was vifilcon A, an ionic polymer with a water content of 55%.\n(§5) Closure rates were calculated by direct measurement of the diameter of the wound. Measurements were taken daily."}, "[2]": {"system": "bovine corneal endothelial cells", "test": "in vitro wound closure, endothelial cell sheets contacted with contact lenses", "format": "cell-based", "description": "as §1, §2, §3, §4, §5\nEndothelial Cells and Tissue."}, "[3]": {"system": "New Zealand white rabbits, eyes abraded with a needle", "test": "rabbit model, eyes abraded with a needle, medicated contact lens in right eye", "format": "in vivo", "quoted_text": "New Zealand white rabbits were anesthetized, and then both eyes were abraded with a needle. A control contact lens was placed in the left eye, and a medicated contact lens was placed in the right eye of each rabbit for up to 4 hours prior to euthanasia. Control contact lenses (etafilcon A, an ionic lens with 58% water content) were washed with phosphate-buffered saline (PBS) prior to insertion. […] Rabbits were visually scored on a 0-4 scale (0 being the best and 4 being the worst) for corneal edema (which is a measure of wound healing), inflammation, and exudate production."}, "[4]": {"system": "recurring epithelial defect", "test": "human testing of medicated lens", "format": "in vivo", "conditions": "polymacon B lens soaked in 400 ppb EGF for 24 hours; one human patient; one administration", "description": "This lens was placed in a human patient suffering from a recurring epithelial defect that was not responsive to traditional medical treatments. […] Desirably treatment lasts for at least one hour. This type of injury is normally treated by the repeated introduction of eye drops, sometimes as often as every 4-5 minutes. A contact lens of the present invention, however, was able to produce a positive result with only one administration."}, "[5]": {"conditions": "vifilcon A lens soaked in 10 ng/μL EGF, 48 hours"}, "[6]": {"conditions": "vifilcon A lens soaked in 10 ng/μL EGF, 72 hours"}, "[7]": {"conditions": "polymacon B lens soaked in 10 ng/μL EGF, 72 hours"}, "[8]": {"conditions": "contact lens, 400 ppb HGH soak, right eye"}},
  "data": [
    {"substance": "epidermal growth factor [EGF]", "values": [
      {"measurement": "healing", "setting": "[1]; 48 hours", "value": 14, "unit": "%"},
      {"measurement": "healing", "setting": "[1]; 72 hours", "value": 25, "unit": "%"},
      {"measurement": "closure rate difference between controls and EGF treated", "setting": "[1]; vifilcon A lens soaked in 5.0 ng/μL EGF, 48 hours", "value": 21, "unit": "%"},
      {"measurement": "difference in the closure rate", "setting": "[1]; vifilcon A lens soaked in 5.0 ng/μL EGF, 72 hours", "value": 21, "unit": "%"},
      {"measurement": "difference in the closure rate between EGF-treated and non-EGF treated cells", "setting": "[1]; [5]", "value": 25, "unit": "%"},
      {"measurement": "difference in the closure rate between EGF-treated and controls", "setting": "[1]; [6]", "value": 43, "unit": "%"},
      {"measurement": "difference in the healing rates compared to a wound not contacted with any lens", "setting": "[1]; vifilcon A lens with EGF, 48 hours", "value": 31, "unit": "%"},
      {"measurement": "increase in the healing rate (wound closure rate) compared to controls", "setting": "[2]; lidofilcon A lens soaked in 10 ng/μL EGF, 48 hours", "value": 54, "unit": "%"},
      {"measurement": "difference in healing rate compared to controls", "setting": "[2]; lidofilcon A lens soaked in 10 ng/μL EGF, 72 hours", "value": 44, "unit": "%"},
      {"measurement": "difference in closure between treated and untreated groups", "setting": "[2]; [7]", "value": 62, "unit": "%"},
      {"measurement": "wound closed", "setting": "[2]; [7]", "value": 80, "unit": "%"},
      {"measurement": "difference in closure rate between EGF treated group and controls", "setting": "[2]; vifilcon A lens soaked in 5 ng/μL EGF, 48 hours", "value": 31, "unit": "%"},
      {"measurement": "tissue healed", "setting": "[2]; vifilcon A lens soaked in 5 ng/μL EGF, 72 hours", "value": 53, "unit": "%"},
      {"measurement": "difference in healing rates compared to a control", "setting": "[2]; [5]", "value": 73, "unit": "%"},
      {"measurement": "tissue healed", "setting": "[2]; [6]", "value": "completely healed"},
      {"measurement": "wound healing compared to control eyes", "setting": "[3]; etafilcon A lenses soaked in 400 ppb EGF, first two hours after treatment", "value": "healed wounds at an accelerated rate"},
      {"measurement": "toxicity in rabbits", "setting": "[3]; etafilcon A lenses soaked in 400 ppb, 4 ppm or 10 ppm EGF", "value": "No toxicity was observed"},
      {"measurement": "clinical efficacy (wound healing)", "setting": "[4]", "value": "Clinical efficacy (i.e., wound healing) was observed"}
    ]},
    {"substance": "human growth hormone [HGH]", "values": [
      {"measurement": "toxicity to the ocular tissue", "setting": "[3]; contact lens, 400 ppb HGH soak", "value": "no toxicity was observed"},
      {"measurement": "inflammation compared to control eyes", "setting": "[3]; [8]", "value": "reduction in inflammation"},
      {"measurement": "wound healing compared to control eyes", "setting": "[3]; [8]", "value": "increased wound healing"}
    ]}
  ]
}
